{"source": "patent US20100136029A1", "about": "“Use of Tri-Substituted Glycerol Compounds for the Treatment of Hematological Malignancies” (UNIVERSITATSKLINIKUM HAMBURG-EPPENDORF, priority 2006, published 2010)", "key": {"[1]": {"test_system": "Jurkat cells", "test": "cells", "conditions": "Homo sapiens, 20 h", "method": "Cell culture was performed as described in FIG. 1. ET-18-OCH3 was added in a final concentration of 2.5 or 5.0 μg/ml (“E2.5” and “E5”, respectively) without or in combination with 5 or 10 ng/ml bortezomib (“Vel5” and “Vel10”, respectively), and the cells were incubated for 20 h. Cell death was assessed as described in FIG. 1. The results are expressed as mean±SEM of three independent experiments.\n(§1) The following human cell lines were used: • 1. KMS-12-BM (DMSZ no. ACC 551), bone marrow cells; myeloma/plasmacytoma; none of the genetic alterations defined herein; Chesi, M. et al. (2001), supra. • 2. K562 (ATCC no. CCL-243); bone marrow cells; CML; none of the genetic alterations defined herein; Delgado, M. D. et al. (2001), supra. • 3. […] OPM-2 (ATCC no. CRL-13007); lymphoblast cells; myeloma; t(4;14) chromosomal translocation; K650E FGFR3 gene mutation (AAG→GAG at codon 650); Chesi, M. et al. (2001), supra. • 5. NCI-H929 (ATCC no. CRL-9068); bone marrow cells; myeloma/plasmacytoma; t(4;14) chromosomal translocation; N13-G>D N-ras gene mutation (GGT→GAT at codon 13); Chesi, M. et al. (2001), supra. • 6. U266 (ATCC no. TIB-196); peripheral blood cells; myeloma/plasmacytoma; none of the genetic alterations defined herein; Chesi, M. et al. (2001), supra. • 7. HL60 (ATCC no. CCL-240); peripheral blood cells; AML; N61-Q>R N-ras gene mutation (CAA→CGA at codon 61); Bos, J. L. et al. (1984), supra. • 8. Jurkat (ATCC no. TIB-152); peripheral blood cells; ALL; 2 by deletion and 9 by insertion at codon 234 in exon 7 of the PTEN gene (resulting in downstream stop codons); Sakai, A. et al. (1998), supra.\n(§2) The cells were grown in 96-well tissue culture plates in a volume of 200 μl to a concentration of 1×10^6 cells/ml. Then, the cells were incubated for 20 h with a final concentration of 5 μg/ml, 10 μg/ml, and 20 μg/ml 1-O-octadecyl-2-O-methyl-glycero-3-phosphocholine (ET-18-OCH3), respectively. Cell death was assessed by staining the cells with 7-amino-actinomycin D (Calbiochem, Darmstadt, Germany; final concentration 200 μg/ml) and analyzed via flow cytometry using a FACS-Scan flow cytometer (BD Biosciences, San Jose, Calif., USA) as described (see, e.g., Schmid, I. et al. (1994) J. Immunol. Meth. 170, 145-157; Ayuk, F. A. et al. (2005) Exp. Hematol. 33, 1531-1536).\n(§3) The cells were again grown in 96-well tissue culture plates in a volume of 200 μl to a concentration of 1×10^6 cells/ml. Then, the cells were incubated for 20 h with the respective drugs. […] The cytotoxic effect of ET-18-OCH3 in combination with bortezomib was determined in Jurkat, HL60 cells, and RPMI8226 cell, whereas the cytotoxic effect of ET-18-OCH3 in combination with cytarabine, fludarabine and etoposide, respectively, in Jurkat and HL60 cells. Cell death was assessed as described in example 1."}, "[2]": {"test_system": "HL60 cells", "test": "Cytotoxicity (cell death) by 7-amino-actinomycin D staining and flow cytometry, HL60 cells", "method": "(§4) The following cell lines were used: KMS-12-BM, K562, RPMI8226, OPM-2, NCI-H929, U266, and HL60. The cells were grown in 96-well tissue culture plates in a volume of 200 μl to a concentration of 1×10^6 cells/ml. Then, the cells were incubated for 20 h with 5 μg/ml, 10 μg/ml, and 20 μg/ml ET-18-OCH3 (final concentrations), respectively. Cell death was assessed by staining the cells with 7-amino-actinomycin D (final concentration 200 μg/ml) and analyzed via flow cytometry as described (see, e.g., Schmid, I. et al. (1994) J. Immunol. Meth. 170, 145-157; Ayuk, F. A. et al. (2005) Exp. Hematol. 33, 1531-1536).\nas §1, §2, §3"}, "[3]": {"test_system": "RPMI8226", "test": "Cytotoxicity (cell death) by 7-amino-actinomycin D staining and flow cytometry, RPMI8226 cells", "method": "as §4, §1, §2, §3"}, "[4]": {"test_system": "NCI-H929", "test": "Cytotoxicity (cell death) by 7-amino-actinomycin D staining and flow cytometry, NCI-H929 cells", "assay_type": "cell-based", "source_text": "(§5) The following human cell lines were used: • 1."}, "[5]": {"test_system": "U266 cells", "test": "Cytotoxicity (cell death) by 7-amino-actinomycin D staining and flow cytometry, U266 cells", "assay_type": "cell-based, human", "conditions": "U266, 20 h, 5, 10 and 20 μg/ml ET-18-OCH3, FIG. 1", "source_text": "as §5"}, "[6]": {"test_system": "OPM-2 cells", "test": "Cytotoxicity (cell death) by 7-amino-actinomycin D staining and flow cytometry, OPM-2 cells", "assay_type": "cell-based", "source_text": "as §5"}, "[7]": {"test_system": "K562", "test": "Cytotoxicity (cell death) by 7-amino-actinomycin D staining and flow cytometry, K562 cells", "assay_type": "cell-based, human", "conditions": "K562, 20 h, 5, 10 and 20 μg/ml ET-18-OCH3, FIG. 1", "source_text": "as §5"}, "[8]": {"test_system": "KMS-12-BM", "test": "Cytotoxicity (cell death) by 7-amino-actinomycin D staining and flow cytometry, KMS-12-BM cells", "assay_type": "cell-based, human", "conditions": "20 h, 5, 10 and 20 μg/ml ET-18-OCH3, FIG. 1", "source_text": "as §5"}}, "note": "Entries after “also recorded” stand apart in the source; their conditions may differ."}
{"smiles": "Nc1ccn([C@@H]2O[C@H](CO)[C@@H](O)[C@@H]2O)c(=O)n1", "note": "[Cytarabine, cytarabine]", "values": [{"measurement": "cytotoxicity at 10 µM", "setting": "[1]", "value": "11.1 ± 0.5", "unit": "%"}, {"measurement": "cytotoxicity at 40 µM", "setting": "[1]", "value": "12.4 ± 1.2", "unit": "%"}, {"measurement": "cytotoxicity at 10 µM", "setting": "[2]; Homo sapiens, HL-60, 20 h", "value": "24 ± 2.8", "unit": "%"}, {"measurement": "cytotoxicity at 40 µM", "setting": "[2]; Homo sapiens, HL-60, 20 h", "value": "26.9 ± 5", "unit": "%"}]}
{"smiles": "CC(C)C[C@H](NC(=O)[C@H](Cc1ccccc1)NC(=O)c1cnccn1)B(O)O", "note": "[Bortezomib, bortezomib]", "values": [{"measurement": "cytotoxicity at 0.005 µg/mL", "setting": "[1]", "value": "0.4 ± 0.5", "unit": "%"}, {"measurement": "cytotoxicity at 0.01 µg/mL", "setting": "[1]", "value": "3.6 ± 1.4", "unit": "%"}, {"measurement": "cytotoxicity at 0.005 µg/mL", "setting": "[2]; Homo sapiens, HL-60, 20 h", "value": "2.7 ± 1.9", "unit": "%"}, {"measurement": "cytotoxicity at 0.01 µg/mL", "setting": "[2]; Homo sapiens, HL-60, 20 h", "value": "10.9 ± 3.7", "unit": "%"}, {"measurement": "cytotoxicity at 0.005 µg/mL", "setting": "[3]; Homo sapiens, RPMI-8226, 20 h", "value": "7.3 ± 4.5", "unit": "%"}, {"measurement": "cytotoxicity at 0.01 µg/mL", "setting": "[3]; Homo sapiens, RPMI-8226, 20 h", "value": "25.1 ± 4", "unit": "%"}]}
{"smiles": "Nc1nc(F)nc2c1ncn2[C@@H]1O[C@H](CO)[C@@H](O)[C@@H]1O", "note": "[Fludarabine, fludarabine]", "values": [{"measurement": "cytotoxicity at 10 µM", "setting": "[1]", "value": "2.4 ± 0.9", "unit": "%"}, {"measurement": "cytotoxicity at 50 µM", "setting": "[1]", "value": "6.2 ± 2.4", "unit": "%"}, {"measurement": "cytotoxicity at 10 µM", "setting": "[2]; Homo sapiens, HL-60, 20 h", "value": "13.8 ± 9.4", "unit": "%"}, {"measurement": "cytotoxicity at 50 µM", "setting": "[2]; Homo sapiens, HL-60, 20 h", "value": "37.2 ± 4.6", "unit": "%"}]}
{"smiles": "CCCCCCCCCCCCCCCCCCOCC(COP(=O)([O-])OCC[N+](C)(C)C)OC", "note": "(stereo not shown) [ET-18-OCH3, 1-O-octadecyl-2-O-methyl-glycero-3-phosphocholine]", "values": [{"measurement": "cytotoxicity at 2.5 µg/mL", "setting": "[1]", "value": "2.1 ± 1", "unit": "%"}, {"measurement": "cytotoxicity at 5 µg/mL", "setting": "[1]", "value": "13.1 ± 5.3", "unit": "%"}, {"measurement": "cell death in words", "setting": "[4]; NCI-H929, 20 h, 20 μg/ml ET-18-OCH3, FIG. 1", "value": "almost complete cell death"}, {"measurement": "cytotoxic effect, dose dependence", "setting": "[4]; NCI-H929, 20 h, 5, 10 and 20 μg/ml ET-18-OCH3, FIG. 1", "value": "dose-dependent effect"}, {"measurement": "cytotoxic effect, dose dependence", "setting": "[2]", "value": "dose-dependent effect"}, {"measurement": "cell death in words", "setting": "[2]; HL60, 20 h, 20 μg/ml ET-18-OCH3, FIG. 1", "value": "almost complete cell death"}, {"measurement": "cytotoxicity at 2.5 µg/mL", "setting": "[2]; Homo sapiens, HL-60, 20 h", "value": "11.3 ± 7.3", "unit": "%"}, {"measurement": "cytotoxicity at 5 µg/mL", "setting": "[2]; Homo sapiens, HL-60, 20 h", "value": "35 ± 15.9", "unit": "%"}, {"measurement": "cytotoxic effect (cell death) in words", "setting": "[5]", "value": "do not respond to ET-18-OCH3 at all; also recorded: significantly reduced or even almost abolished"}, {"measurement": "cytotoxicity at 2.5 µg/mL", "setting": "[3]; Homo sapiens, RPMI-8226, 20 h", "value": "11.2 ± 8.1", "unit": "%"}, {"measurement": "cytotoxicity at 5 µg/mL", "setting": "[3]; Homo sapiens, RPMI-8226, 20 h", "value": "34.7 ± 13.2", "unit": "%"}, {"measurement": "cell death in words", "setting": "[3]; RPMI8226, 20 h, 20 μg/ml ET-18-OCH3, FIG. 1", "value": "almost complete cell death"}, {"measurement": "cytotoxic effect, dose dependence", "setting": "[3]; RPMI8226, 20 h, 5, 10 and 20 μg/ml ET-18-OCH3, FIG. 1", "value": "dose-dependent effect"}, {"measurement": "cells died", "setting": "[6]; OPM-2, 20 h, 20 μg/ml ET-18-OCH3, FIG. 1", "value": "about 75%"}, {"measurement": "cytotoxic effect, dose dependence", "setting": "[6]; OPM-2, 20 h, 5, 10 and 20 μg/ml ET-18-OCH3, FIG. 1", "value": "dose-dependent effect"}, {"measurement": "cytotoxic effect (cell death) in words", "setting": "[7]", "value": "dose-dependent effect; also recorded: significantly reduced or even almost abolished"}, {"measurement": "cytotoxic effect (cell death) in words", "setting": "[8]", "value": "significantly reduced or even almost abolished; also recorded: dose-dependent effect"}]}
{"smiles": "COc1cc([C@@H]2c3cc4c(cc3[C@@H](O[C@@H]3O[C@@H]5CO[C@@H](C)O[C@H]5[C@H](O)[C@H]3O)[C@H]3COC(=O)[C@H]23)OCO4)cc(OC)c1O", "note": "[Etoposide, etoposide]", "values": [{"measurement": "cytotoxicity at 1 µM", "setting": "[1]", "value": "5.9 ± 1.1", "unit": "%"}, {"measurement": "cytotoxicity at 2.5 µM", "setting": "[1]", "value": "10 ± 0.8", "unit": "%"}, {"measurement": "cytotoxicity at 5 µM", "setting": "[1]", "value": "16.8 ± 8.4", "unit": "%"}, {"measurement": "cytotoxicity at 1 µM", "setting": "[2]; Homo sapiens, HL-60, 20 h", "value": "4.1 ± 0.7", "unit": "%"}, {"measurement": "cytotoxicity at 2.5 µM", "setting": "[2]; Homo sapiens, HL-60, 20 h", "value": "10.7 ± 5.4", "unit": "%"}, {"measurement": "cytotoxicity at 5 µM", "setting": "[2]; Homo sapiens, HL-60, 20 h", "value": "23.3 ± 8.2", "unit": "%"}]}
